According to ChEMBL document CHEMBL5329199, “Discovery of novel dual Bruton's tyrosine kinase (BTK) and Janus kinase 3 (JAK3) inhibitors as a promising strategy for rheumatoid arthritis” (Bioorg Med Chem, 2023):
Blank lines part the entries; values can stand above or below the compound they belong to.

Legend:
[1] = test system: BaF3; assay: Antiproliferative activity against mouse BaF3 cells expressing JAK3 mutant assessed as inhibition of cell growth incubated for 72 hrs by Cell Titer-Glo assay; format: functional, cell-based; settings: BaF3, 72 h
[2] = test system: Daudi; assay: Antiproliferative activity against human Daudi cells assessed as inhibition of cell growth incubated for 72 hrs by Cell Titer-Glo assay; format: functional, cell-based
[3] = Acute toxicity in po dosed ICR mouse assessed as minimum lethal dose measured for 7 days; format: organism-based; settings: in vivo, 168 h, time 7 day
[4] = molecular target: Tyrosine-protein kinase BTK (Homo sapiens, UniProt Q06187); assay: Inhibition of BTK (unknown origin) preincubated for 10 mins followed by kinase substrate and ATP addition and measured for 20 mins by mobility shift assay
Sequence of Tyrosine-protein kinase BTK (Q06187 whole entry): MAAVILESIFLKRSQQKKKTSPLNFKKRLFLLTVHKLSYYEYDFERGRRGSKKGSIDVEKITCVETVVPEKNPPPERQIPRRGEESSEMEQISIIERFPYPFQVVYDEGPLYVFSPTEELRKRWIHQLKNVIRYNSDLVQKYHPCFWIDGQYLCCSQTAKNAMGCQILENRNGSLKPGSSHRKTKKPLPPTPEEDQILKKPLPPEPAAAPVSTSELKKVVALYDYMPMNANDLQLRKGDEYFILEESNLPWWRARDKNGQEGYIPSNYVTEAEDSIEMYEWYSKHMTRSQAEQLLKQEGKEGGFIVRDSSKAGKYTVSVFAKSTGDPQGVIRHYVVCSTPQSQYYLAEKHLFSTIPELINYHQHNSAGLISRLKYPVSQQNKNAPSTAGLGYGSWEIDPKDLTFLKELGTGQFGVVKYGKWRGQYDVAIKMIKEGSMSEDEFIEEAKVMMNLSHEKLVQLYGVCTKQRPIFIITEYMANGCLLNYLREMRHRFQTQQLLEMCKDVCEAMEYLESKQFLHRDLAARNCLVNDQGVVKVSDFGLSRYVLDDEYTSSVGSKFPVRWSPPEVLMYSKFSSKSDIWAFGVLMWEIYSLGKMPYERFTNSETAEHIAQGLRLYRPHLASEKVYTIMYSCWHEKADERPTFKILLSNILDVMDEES

[5] = molecular target: T1, Tyrosine-protein kinase JAK3 (Homo sapiens, UniProt P52333); assay: Inhibition of JAK3 (unknown origin) preincubated for 10 mins followed by kinase substrate and ATP addition and measured for 30 mins by mobility shift assay
T1 sequence (P52333 whole entry): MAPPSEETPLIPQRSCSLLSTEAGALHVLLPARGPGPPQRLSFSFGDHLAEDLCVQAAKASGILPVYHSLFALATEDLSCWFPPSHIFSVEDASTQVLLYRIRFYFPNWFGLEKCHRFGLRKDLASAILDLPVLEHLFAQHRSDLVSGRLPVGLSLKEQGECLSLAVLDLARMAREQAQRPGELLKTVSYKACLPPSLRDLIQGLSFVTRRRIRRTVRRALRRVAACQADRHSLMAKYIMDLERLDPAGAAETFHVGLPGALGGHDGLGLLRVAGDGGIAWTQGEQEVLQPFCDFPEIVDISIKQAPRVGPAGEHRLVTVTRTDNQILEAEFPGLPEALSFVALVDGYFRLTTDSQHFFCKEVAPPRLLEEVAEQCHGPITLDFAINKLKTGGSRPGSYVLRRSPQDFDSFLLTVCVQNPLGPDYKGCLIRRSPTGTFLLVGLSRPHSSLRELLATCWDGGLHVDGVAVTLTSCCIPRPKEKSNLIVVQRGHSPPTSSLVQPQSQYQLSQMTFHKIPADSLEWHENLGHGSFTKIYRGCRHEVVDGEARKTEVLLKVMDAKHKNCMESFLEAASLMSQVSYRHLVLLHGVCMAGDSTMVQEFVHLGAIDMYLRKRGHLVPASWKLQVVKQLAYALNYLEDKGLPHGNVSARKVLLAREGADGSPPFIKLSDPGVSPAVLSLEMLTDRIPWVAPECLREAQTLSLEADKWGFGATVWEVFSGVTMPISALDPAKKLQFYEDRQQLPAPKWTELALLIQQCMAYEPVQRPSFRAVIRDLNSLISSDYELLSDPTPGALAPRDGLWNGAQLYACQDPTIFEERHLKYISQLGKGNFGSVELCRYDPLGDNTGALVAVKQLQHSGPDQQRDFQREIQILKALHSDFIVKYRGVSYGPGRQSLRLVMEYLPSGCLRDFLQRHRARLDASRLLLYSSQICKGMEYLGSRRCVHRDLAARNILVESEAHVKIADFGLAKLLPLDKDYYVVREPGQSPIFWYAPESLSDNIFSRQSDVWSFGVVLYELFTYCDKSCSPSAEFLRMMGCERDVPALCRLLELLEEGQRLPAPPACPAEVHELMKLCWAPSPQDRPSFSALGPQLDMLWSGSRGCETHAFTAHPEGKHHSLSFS

[6] = Cytotoxicity against HUVEC cells incubated for 12 hrs by MTT assay; format: toxicity, cell-based; settings: human
[7] = Cytotoxicity against HUVEC cells incubated for 24 hrs by MTT assay; format: toxicity, cell-based; settings: human
[8] = Cytotoxicity against HUVEC cells incubated for 48 hrs by MTT assay; format: toxicity, cell-based; settings: human
[9] = Cytotoxicity against mouse RAW264.7 cells incubated for 12 hrs by MTT assay; format: toxicity, cell-based
[10] = Cytotoxicity against mouse RAW264.7 cells incubated for 24 hrs by MTT assay; format: toxicity, cell-based
[11] = Cytotoxicity against mouse RAW264.7 cells incubated for 48 hrs by MTT assay; format: toxicity, cell-based
[12] = Cytotoxicity against human L02 cells incubated for 12 hrs by MTT assay; format: toxicity, cell-based
[13] = Cytotoxicity against human L02 cells incubated for 24 hrs by MTT assay; format: toxicity, cell-based
[14] = Cytotoxicity against human L02 cells incubated for 48 hrs by MTT assay; format: toxicity, cell-based
[15] = Cytotoxicity against rat NRK cells incubated for 12 hrs by MTT assay; format: toxicity, cell-based
[16] = Cytotoxicity against rat NRK cells incubated for 24 hrs by MTT assay; format: toxicity, cell-based
[17] = Cytotoxicity against rat NRK cells incubated for 48 hrs by MTT assay; format: toxicity, cell-based
[18] = Tmax in Sprague-Dawley rat at 50 mg/kg, po by LC/MS analysis; format: ADME, organism-based; settings: in vivo
[19] = Cmax in Sprague-Dawley rat at 50 mg/kg, po measured for 720 mins by LC/MS analysis; format: ADME, organism-based; parameters: dose 50 mg/kg, time 720 min, route po; settings: in vivo
[20] = AUC(all) in Sprague-Dawley rat at 50 mg/kg, po measured for 720 mins by LC/MS analysis; format: ADME, organism-based; parameters: dose 50 mg/kg, time 720 min, route po; settings: in vivo
[21] = Observed MRT(infinity) in Sprague-Dawley rat at 50 mg/kg, po measured for 720 mins by LC/MS analysis; format: ADME, organism-based; settings: in vivo
[22] = Half life in Sprague-Dawley rat at 50 mg/kg, po by LC/MS analysis; format: ADME, organism-based; settings: in vivo
[23] = Oral bioavailability in Sprague-Dawley rat at 50 mg/kg measured for 720 mins by LC/MS analysis; format: ADME, organism-based; settings: in vivo
[24] = AUC(all) in Sprague-Dawley rat at 5 mg/kg, iv measured for 720 mins by LC/MS analysis; format: ADME, organism-based; parameters: time 720 min, dose 5 mg/kg, route iv; settings: in vivo
[25] = Observed MRT(infinity) in Sprague-Dawley rat at 5 mg/kg, iv measured for 720 mins by LC/MS analysis; format: ADME, organism-based; settings: in vivo
[26] = molecular target: Voltage-gated inwardly rectifying potassium channel KCNH2 (Homo sapiens, UniProt Q12809); assay: Inhibition of human ERG by patch clamp assay
Sequence of Voltage-gated inwardly rectifying potassium channel KCNH2 (Q12809 whole entry): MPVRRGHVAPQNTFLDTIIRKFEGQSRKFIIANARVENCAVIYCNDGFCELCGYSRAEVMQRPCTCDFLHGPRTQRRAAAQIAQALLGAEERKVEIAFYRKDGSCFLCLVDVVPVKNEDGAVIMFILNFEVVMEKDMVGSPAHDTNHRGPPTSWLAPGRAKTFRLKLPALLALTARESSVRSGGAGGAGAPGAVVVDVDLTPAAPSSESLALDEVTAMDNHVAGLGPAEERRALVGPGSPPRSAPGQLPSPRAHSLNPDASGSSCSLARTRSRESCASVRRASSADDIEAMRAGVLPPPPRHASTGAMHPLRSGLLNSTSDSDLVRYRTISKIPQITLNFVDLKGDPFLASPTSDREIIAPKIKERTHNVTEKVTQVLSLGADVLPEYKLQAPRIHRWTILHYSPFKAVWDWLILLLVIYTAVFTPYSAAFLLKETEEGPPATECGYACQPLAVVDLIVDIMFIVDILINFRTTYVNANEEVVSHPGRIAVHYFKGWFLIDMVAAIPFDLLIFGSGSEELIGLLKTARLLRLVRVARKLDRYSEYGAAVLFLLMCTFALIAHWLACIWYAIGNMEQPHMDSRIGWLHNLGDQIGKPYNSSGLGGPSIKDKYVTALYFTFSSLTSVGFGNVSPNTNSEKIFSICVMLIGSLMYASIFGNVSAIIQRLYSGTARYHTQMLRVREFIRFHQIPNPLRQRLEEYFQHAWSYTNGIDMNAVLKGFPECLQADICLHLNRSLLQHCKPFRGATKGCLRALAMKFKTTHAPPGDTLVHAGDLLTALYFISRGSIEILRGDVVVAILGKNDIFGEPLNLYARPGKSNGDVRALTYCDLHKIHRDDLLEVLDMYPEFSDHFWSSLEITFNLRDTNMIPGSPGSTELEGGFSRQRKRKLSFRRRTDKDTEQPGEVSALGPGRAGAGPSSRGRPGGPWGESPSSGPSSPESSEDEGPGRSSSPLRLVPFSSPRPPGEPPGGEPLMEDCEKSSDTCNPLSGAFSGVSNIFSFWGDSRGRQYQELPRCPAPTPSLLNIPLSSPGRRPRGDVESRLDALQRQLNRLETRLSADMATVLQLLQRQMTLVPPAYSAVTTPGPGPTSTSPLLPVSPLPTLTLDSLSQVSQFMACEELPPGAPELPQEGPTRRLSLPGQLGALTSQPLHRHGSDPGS

[27] = molecular target: Tyrosine-protein kinase JAK1 (Homo sapiens, UniProt P23458); assay: Inhibition of JAK1 (unknown origin) using kinetic substrate in presence of ATP by mobility shift assay
Sequence of Tyrosine-protein kinase JAK1 (P23458 whole entry): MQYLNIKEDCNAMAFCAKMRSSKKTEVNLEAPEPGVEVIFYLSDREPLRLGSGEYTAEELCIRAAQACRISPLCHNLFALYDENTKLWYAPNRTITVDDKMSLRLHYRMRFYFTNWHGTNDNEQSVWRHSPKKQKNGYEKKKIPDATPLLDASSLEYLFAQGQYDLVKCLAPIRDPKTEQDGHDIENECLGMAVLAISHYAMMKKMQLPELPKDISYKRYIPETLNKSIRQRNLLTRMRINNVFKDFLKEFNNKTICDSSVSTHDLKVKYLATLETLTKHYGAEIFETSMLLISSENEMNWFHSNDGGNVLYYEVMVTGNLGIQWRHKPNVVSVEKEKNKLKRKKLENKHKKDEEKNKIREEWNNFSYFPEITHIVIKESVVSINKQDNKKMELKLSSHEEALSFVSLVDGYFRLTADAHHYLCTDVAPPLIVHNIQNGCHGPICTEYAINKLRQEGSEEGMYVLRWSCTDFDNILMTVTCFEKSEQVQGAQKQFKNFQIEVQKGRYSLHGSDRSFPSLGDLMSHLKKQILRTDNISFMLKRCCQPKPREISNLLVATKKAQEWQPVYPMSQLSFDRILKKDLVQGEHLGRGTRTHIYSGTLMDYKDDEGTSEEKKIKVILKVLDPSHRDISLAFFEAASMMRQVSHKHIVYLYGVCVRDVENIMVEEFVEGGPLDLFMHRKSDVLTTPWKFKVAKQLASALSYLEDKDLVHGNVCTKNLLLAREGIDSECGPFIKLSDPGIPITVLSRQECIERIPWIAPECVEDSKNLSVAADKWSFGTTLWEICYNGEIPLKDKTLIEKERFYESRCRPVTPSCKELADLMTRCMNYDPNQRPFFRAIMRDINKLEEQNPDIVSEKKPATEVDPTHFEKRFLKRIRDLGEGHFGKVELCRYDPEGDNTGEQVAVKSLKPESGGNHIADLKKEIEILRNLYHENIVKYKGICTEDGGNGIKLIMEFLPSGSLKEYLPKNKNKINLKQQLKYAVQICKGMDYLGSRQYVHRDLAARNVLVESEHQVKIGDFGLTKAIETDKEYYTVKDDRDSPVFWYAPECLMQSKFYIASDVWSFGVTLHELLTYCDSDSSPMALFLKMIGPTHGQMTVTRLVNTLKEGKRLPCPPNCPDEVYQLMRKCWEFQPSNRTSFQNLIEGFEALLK

[28] = molecular target: Tyrosine-protein kinase JAK2 (Homo sapiens, UniProt O60674); assay: Inhibition of JAK2 (unknown origin) using kinetic substrate in presence of ATP by mobility shift assay
Sequence of Tyrosine-protein kinase JAK2 (O60674 whole entry): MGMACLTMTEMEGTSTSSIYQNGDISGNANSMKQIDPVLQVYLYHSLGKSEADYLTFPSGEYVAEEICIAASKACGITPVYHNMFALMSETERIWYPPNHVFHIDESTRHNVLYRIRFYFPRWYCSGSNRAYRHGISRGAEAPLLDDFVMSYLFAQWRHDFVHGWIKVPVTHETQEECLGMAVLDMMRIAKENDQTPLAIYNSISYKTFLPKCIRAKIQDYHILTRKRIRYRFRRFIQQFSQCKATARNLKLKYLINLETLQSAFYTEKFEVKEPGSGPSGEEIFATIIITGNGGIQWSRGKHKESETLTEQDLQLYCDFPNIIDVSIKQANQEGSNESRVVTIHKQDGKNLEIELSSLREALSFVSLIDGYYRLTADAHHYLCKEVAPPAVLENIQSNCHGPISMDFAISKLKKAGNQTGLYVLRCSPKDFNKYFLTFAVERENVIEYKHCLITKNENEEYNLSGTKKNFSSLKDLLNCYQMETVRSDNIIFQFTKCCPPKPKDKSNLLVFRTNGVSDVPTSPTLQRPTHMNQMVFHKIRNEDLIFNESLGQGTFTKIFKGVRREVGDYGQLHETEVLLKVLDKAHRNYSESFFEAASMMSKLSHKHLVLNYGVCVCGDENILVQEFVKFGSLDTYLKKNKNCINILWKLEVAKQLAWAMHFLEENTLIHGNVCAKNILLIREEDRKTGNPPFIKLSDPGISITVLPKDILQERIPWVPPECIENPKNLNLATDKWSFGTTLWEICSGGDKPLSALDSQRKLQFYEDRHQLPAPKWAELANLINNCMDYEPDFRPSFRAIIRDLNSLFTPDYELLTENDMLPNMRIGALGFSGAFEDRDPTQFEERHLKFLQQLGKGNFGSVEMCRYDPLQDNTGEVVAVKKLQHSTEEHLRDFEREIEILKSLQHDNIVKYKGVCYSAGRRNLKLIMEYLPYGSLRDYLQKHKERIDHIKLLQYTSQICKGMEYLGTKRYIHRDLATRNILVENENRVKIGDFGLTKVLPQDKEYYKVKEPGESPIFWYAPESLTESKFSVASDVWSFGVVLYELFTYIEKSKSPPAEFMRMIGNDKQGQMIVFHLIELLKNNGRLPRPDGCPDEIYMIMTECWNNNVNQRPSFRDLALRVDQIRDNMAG

[29] = molecular target: Non-receptor tyrosine-protein kinase TYK2 (Homo sapiens, UniProt P29597); assay: Inhibition of TYK2 (unknown origin) using kinetic substrate in presence of ATP by mobility shift assay

SMILES: C=CC(=O)N1CCC[C@@H](n2nc(-c3ccc(Oc4ccccc4)cc3)c3c(N)ncnc32)C1 [IBRUTINIB]
- IC50 [1]: 1420 nM
- IC50 [2]: 656 nM
- MLD [3]: 750 mg/kg

- IC50 [4]: 1.7 nM
- IC50 [5]: 61 nM
SMILES: C=CC(=O)N1CCC[C@@H](n2nc(-c3ccc(NC(=O)c4cccs4)c4c3OCO4)c3c(N)ncnc32)C1

- IC50 [4]: 0.9 nM
- IC50 [5]: 176 nM
SMILES: C=CC(=O)N1CCC[C@@H](n2nc(-c3ccc(NC(=O)c4ccc(F)cc4)c4c3OCO4)c3c(N)ncnc32)C1

- IC50 [4]: 2.9 nM
- IC50 [5]: 372 nM
SMILES: C=CC(=O)N1CCC[C@@H](n2nc(-c3ccc(NC(=O)c4ccc(C#N)cc4)c4c3OCO4)c3c(N)ncnc32)C1

- IC50 [4]: 6 nM
- IC50 [5]: 645 nM
SMILES: C=CC(=O)N1CCC[C@@H]1Cn1nc(-c2ccc(NC(=O)c3ccc(N(C)C)cc3)c3c2OCO3)c2c(N)ncnc21

- IC50 [4]: 1.3 nM
- IC50 [5]: 73 nM
SMILES: C=CC(=O)N1CCC[C@@H](n2nc(-c3ccc(NC(=O)c4ccccc4)c4c3OCO4)c3c(N)ncnc32)C1

- IC50 [4]: 2 nM
- IC50 [5]: 106 nM
SMILES: C=CC(=O)N1CCC[C@@H](n2nc(-c3ccc(NC(=O)c4ccccc4Cl)c4c3OCO4)c3c(N)ncnc32)C1

- IC50 [4]: 60 nM
- IC50 [5]: > 10000 nM
SMILES: N#CCC(=O)N1CCC[C@@H](n2nc(-c3ccc(NC(=O)c4ccccc4)c4c3OCO4)c3c(N)ncnc32)C1

- IC50 [4]: 5.94 nM
- IC50 [5]: 500 nM
SMILES: C=CC(=O)N1CCC[C@@H](n2nc(-c3ccc(NC(=O)C45CC6CC(CC(C6)C4)C5)c4c3OCO4)c3c(N)ncnc32)C1

SMILES: C=CC(=O)N1CCC[C@@H](n2nc(-c3ccc(NC(=O)c4ccc(N(C)C)cc4)c4c3OCO4)c3c(N)ncnc32)C1
- IC50 at 12 h [6]: 50000 nM
- IC50 at 24 h [7]: 40600 nM
- IC50 at 48 h [8]: 27300 nM
- IC50 at 12 h [9]: 60800 nM
- IC50 at 24 h [10]: 50600 nM
- IC50 at 48 h [11]: 19700 nM
- IC50 at 12 h [12]: 69900 nM
- IC50 at 24 h [13]: 28200 nM
- IC50 at 48 h [14]: 9610 nM
- IC50 at 12 h [15]: 51000 nM
- IC50 at 24 h [16]: 15700 nM
- IC50 at 48 h [17]: 11800 nM
- Tmax [18]: 0.459 h
- Cmax [19]: 209 ng/mL
- AUC at 12 h [20]: 437 ng·h/mL
- MRT inf [21]: 3.4 h
- half-life [22]: 2.57 h
- bioavailability [23]: 13.2%
- AUC at 12 h [24]: 299 ng·h/mL
- MRT inf [25]: 9.36 min
- IC50 [1]: 366 nM
- IC50 [2]: 690 nM
- IC50 [4]: 2 nM
- IC50 [5]: 14 nM
- MLD [3]: > 1600 mg/kg
- IC50 [26]: 14800 nM
- IC50 [27]: > 10000 nM
- IC50 [28]: > 10000 nM
- IC50 [29]: > 10000 nM

- IC50 [4]: 0.42 nM
- IC50 [5]: 19 nM
SMILES: C=CC(=O)N1CCC[C@@H](n2nc(-c3ccc(NC(=O)c4cc5ccccc5s4)c4c3OCO4)c3c(N)ncnc32)C1

- IC50 [4]: 1.8 nM
- IC50 [5]: 51 nM
SMILES: C=CC(=O)N1CCC[C@@H](n2nc(-c3ccc(NC(=O)c4ccc(C(F)(F)F)cc4)c4c3OCO4)c3c(N)ncnc32)C1

- IC50 [4]: 2.7 nM
- IC50 [5]: 37 nM
SMILES: C=CC(=O)N1CCC[C@@H](n2nc(-c3ccc(NC(=O)c4ccc(C(C)(C)C)cc4)c4c3OCO4)c3c(N)ncnc32)C1

- IC50 [4]: 3.49 nM
- IC50 [5]: 122 nM
SMILES: C=CC(=O)N1CCC[C@@H](n2nc(-c3ccc(NC(=O)c4ccccc4N(C)C)c4c3OCO4)c3c(N)ncnc32)C1

- IC50 [4]: 1.48 nM
- IC50 [5]: 500 nM
SMILES: C=CC(=O)N1CCC[C@@H](n2nc(-c3ccc(NC(=O)C45CCC(CC4)C5)c4c3OCO4)c3c(N)ncnc32)C1

- IC50 [4]: 2.2 nM
- IC50 [5]: 27 nM
SMILES: C=CC(=O)N1CCC[C@@H](n2nc(-c3ccc(NC(=O)c4ccc(N(CC)CC)cc4)c4c3OCO4)c3c(N)ncnc32)C1
